How the values were obtained:
Type in all cases: cell-based
human chondrocytes = assay: MTT test (Test 0), cell vitality; details: overnight incubation, 'likewise' = did not prove toxic
Method: (§1) Human chondrocytes (Lonza, cat. N. CC-2550) derived from knee tissue were cultured in Chondrocyte Growth Medium (Lonza, cat. N. CC-3216) prepared according to the manufacturer's instructions with the addition of R3-insulin-like growth factor-1 [R3-IGF-1], human recombinant fibroblast growth factor beta [hrFGF-β], transferrin, insulin, foetal bovine serum [FBS] and gentamicin/amphotericin-B [GA]. The cells were maintained in an incubator at 37° C. and 5% CO2 and seeded every 3-4 days at a density of about 1×10^4 cells/cm^2.
(§2) After about 16-20 hours of incubation, the cells were processed for the various tests.
This colorimetric test is based on the transformation of the tetrazolium salt MTT (yellow) into formazan (violet), by the succinate-tetrazolium reductase system, which belongs to the mitochondrial respiratory chain and is active only in metabolically active cells. […] An insoluble colorant forms during this period, which, after dissolving by adding dissolution solution to the samples (10% SDS in 10 mM HCl) and after incubating overnight in an incubator, may be quantified by reading the absorbance of the samples at 595 nm (using 750 nm as reference wavelength). The measured absorbance correlates directly with the number of live cells.
To exclude a possible toxic effect attributable to the chosen incubation protocol, the cell vitality was quantified by means of an MTT test. […]

[1] = system: TNFα production by human chondrocytes; assay: ELISA test (Test 1a), TNFα in culture medium
Method: as §1, §2
In the “sandwich” ELISA test, a 96-well plate is covered with a monoclonal antibody specific for a given cytokine. […] The addition of a sulfuric acid solution changes the colour of the solution from blue to yellow, blocking the development of the colour and allowing accurate reading of the absorbance of the samples at 450 nm.
For the purposes of the treatment, the medium was harvested and stored at −80° C. until the time of use for the test. […] The concentrations of cytokines released into the culture medium were then expressed as pg of cytokine/mg of total protein of the sample. […]
Release into the culture medium of the pro-inflammatory cytokines TNFα, IL-6 and IL-8 by the human chondrocytes was evaluated both in the absence and in the presence of stimulation with IL-1β for 16 hours. […]

[2] = system: nuclear translocation of NF-kB in human chondrocytes; assay: Nuclear translocation of NF-kB (Test 1b), immunolabelling and confocal microscope; details: IL-1β about 20 hours
Method: as §1, §2
The chondrocytes were seeded onto 13 mm glass slides and, once they had reached confluence, were incubated overnight with the various treatments. […]
Images of the samples thus prepared were acquired on a confocal microscope (TCS SPE UV, Leica Microsystems) and were analysed with the software ImageJ v1.47h (http://imagej.nih.gov/ij) for the quantification of the nuclear translocation of NF-kB (Noursadeghi M et al., Journal of Immunological Methods, 2008, vol. 329, pages 194-200). […] These masks were then applied to the original NF-kB signals to calculate the fluorescence intensity in the nucleus and in the cytoplasm from the histograms of the intensities created with ImageJ. The mean fluorescence intensity ratio between the nucleus and the cytoplasm was then calculated for each sample.

SMILES	toxicity to chondrocytes (MTT, cell vitality) (human chondrocytes; 100 μM)	effect on the production of TNFα ([1]; 100 μM in the culture medium)	effect on the translocation of NF-kB to the nucleus ([2]; diclofenac 100 μM)	toxicity to chondrocytes (MTT, cell vitality) (human chondrocytes; 10 μM)	effect on the production of TNFα ([1]; 10 μM in the culture medium)	effect on the translocation of NF-kB to the nucleus ([2]; celecoxib 10 μM)
O=C(O)Cc1ccccc1Nc1c(Cl)cccc1Cl [diclofenac]	likewise for the incubation with the positive controls	no effect	no significant effect			
Cc1ccc(-c2cc(C(F)(F)F)nn2-c2ccc(S(N)(=O)=O)cc2)cc1 [celecoxib]				likewise for the incubation with the positive controls	no effect	no significant effect

Reference: US10548937B2, “Composition for the treatment of arthropathies and osteoarthritis” (Kolinpharma S.p.A., priority 2014, dated 2020)
